system: HEL92.1.7; experiment: HEL92.1.7 cell proliferation experiment (Cell Titer-Glo); type: cell-based; settings: Homo sapiens, HEL 92.1.7; HEL92.1.7 cells, 72 hours

Structure (SMILES)	IC50
CC(C)(C)NS(=O)(=O)c1cccc(N2CCc3cnc(Nc4ccc(C5CCNCC5)cc4)nc32)c1 [Compound I-20]	0.25 µM
CC(C)(C)NS(=O)(=O)c1cccc(N2CCc3cnc(Nc4ccc(OCCN5CCOCC5)cc4)nc32)c1 [Compound I-3]	0.19 µM
CC(C)(C)NS(=O)(=O)c1cccc(N2CCc3cnc(Nc4ccc(OCCN5CCNCC5)cc4)nc32)c1 [Compound I-2]	0.3 µM

system: TF-1; experiment: TF-1 cell proliferation experiment (CellTiter Glo); type: cell-based; settings: Homo sapiens; TF-1 cells, 72 hours; read-out: TF-1 (μM), proliferation inhibition

Structure (SMILES)	IC50
CC(C)(C)NS(=O)(=O)c1cccc(N2CCc3cnc(Nc4ccc(C5CCNCC5)cc4)nc32)c1 [Compound I-20]	0.19 µM
CC(C)(C)NS(=O)(=O)c1cccc(N2CCc3cnc(Nc4ccc(OCCN5CCOCC5)cc4)nc32)c1 [Compound I-3]	0.18 µM
CC(C)(C)NS(=O)(=O)c1cccc(N2CCc3cnc(Nc4ccc(OCCN5CCNCC5)cc4)nc32)c1 [Compound I-2]	0.21 µM

system: not listed separately; experiment: Pharmacokinetic test in SD rats, intragastric administration; type: in vivo; settings: rat, po, single intragastric administration, 25 mg/kg, plasma, read-out: Blood concentration Cmax
Experimental: SD rats were used as the test animals.
Standard curve and preparation and processing of quality control samples:
Stock solution was diluted with 50% acetonitrile/water solution to obtain standard working solutions of 0.04, 0.10, 0.20, 0.40, 1.00, 2.00, 4.00 μg/mL, and quality control working solutions of 0.10, 1.00, 3.00 μg/mL. 2.50 μL of standard curve working solutions and quality control working solutions were added to 47.5 μL of blank rat plasma, respectively, to obtain standard curve solutions having analyte concentrations of 2.00, 5.00, 10.00, 20.00, 50.00, 100.00, 200.00 ng/mL and quality control samples having concentrations of 5.00, 50.00, and 150.00 ng/mL. 200 μL of acetonitrile (containing 5 ng/mL of the internal standard loratadine) was added. After vortexing for 3 minutes, the solutions were centrifuged at 15000 rpm at 4° C. for 15 minutes. 100 μL of the supernatant was taken for LC-MS/MS analysis. WinNonlin® 8.0 was used to calculate the experimental results.

Structure (SMILES)	Cmax
CC(C)(C)NS(=O)(=O)c1cccc(N2CCc3cnc(Nc4ccc(C5CCNCC5)cc4)nc32)c1 [Compound I-20]	1030 ng/mL
CC(C)(C)NS(=O)(=O)c1cccc(N2CCc3cnc(Nc4ccc(OCCN5CCOCC5)cc4)nc32)c1 [Compound I-3]	1230 ng/mL
CC(C)(C)NS(=O)(=O)c1cccc(N2CCc3cnc(Nc4ccc(OCCN5CCNCC5)cc4)nc32)c1 [Compound I-2]	1020 ng/mL

same assay, conditions: rat, po, single intragastric administration, 25 mg/kg, plasma, read-out: Curve area AUClast

Structure (SMILES)	AUC(0-t)
CC(C)(C)NS(=O)(=O)c1cccc(N2CCc3cnc(Nc4ccc(C5CCNCC5)cc4)nc32)c1 [Compound I-20]	912 ng·h/mL
CC(C)(C)NS(=O)(=O)c1cccc(N2CCc3cnc(Nc4ccc(OCCN5CCOCC5)cc4)nc32)c1 [Compound I-3]	903 ng·h/mL
CC(C)(C)NS(=O)(=O)c1cccc(N2CCc3cnc(Nc4ccc(OCCN5CCNCC5)cc4)nc32)c1 [Compound I-2]	839 ng·h/mL

same assay, conditions: rat, po, single intragastric administration, 25 mg/kg, plasma, read-out: Half life t1/2 (converted)

Structure (SMILES)	half-life
CC(C)(C)NS(=O)(=O)c1cccc(N2CCc3cnc(Nc4ccc(C5CCNCC5)cc4)nc32)c1 [Compound I-20]	6.3 h
CC(C)(C)NS(=O)(=O)c1cccc(N2CCc3cnc(Nc4ccc(OCCN5CCOCC5)cc4)nc32)c1 [Compound I-3]	5.9 h
CC(C)(C)NS(=O)(=O)c1cccc(N2CCc3cnc(Nc4ccc(OCCN5CCNCC5)cc4)nc32)c1 [Compound I-2]	6 h

same assay, conditions: rat, po, single intragastric administration, 25 mg/kg, plasma, read-out: Time to peak Tmax

Structure (SMILES)	Tmax
CC(C)(C)NS(=O)(=O)c1cccc(N2CCc3cnc(Nc4ccc(C5CCNCC5)cc4)nc32)c1 [Compound I-20]	2 h
CC(C)(C)NS(=O)(=O)c1cccc(N2CCc3cnc(Nc4ccc(OCCN5CCOCC5)cc4)nc32)c1 [Compound I-3]	1.5 h
CC(C)(C)NS(=O)(=O)c1cccc(N2CCc3cnc(Nc4ccc(OCCN5CCNCC5)cc4)nc32)c1 [Compound I-2]	1.5 h

system: not listed separately; experiment: Acute toxicity test, single oral administration to ICR mice (MTD); type: in vivo; settings: ICR, mouse, in vivo, po, read-out: MTD (maximum tolerated dose)

Structure (SMILES)	MTD at 6 days
CC(C)(C)NS(=O)(=O)c1cccc(N2CCc3cnc(Nc4ccc(C5CCNCC5)cc4)nc32)c1 [Compound I-20]	> 2000 mg/kg
CC(C)(C)NS(=O)(=O)c1cccc(N2CCc3cnc(Nc4ccc(OCCN5CCNCC5)cc4)nc32)c1 [Compound I-2]	≥ 1000 mg/kg

system: ICR mice; experiment: as above; type: in vivo; settings: not given

Structure (SMILES)	MTD (maximum tolerated dose)
CC(C)(C)NS(=O)(=O)c1cccc(N2CCc3cnc(Nc4ccc(C5CCNCC5)cc4)nc32)c1 [Compound I-20]	>2000 mg/kg
CC(C)(C)NS(=O)(=O)c1cccc(N2CCc3cnc(Nc4ccc(OCCN5CCNCC5)cc4)nc32)c1 [Compound I-2]	1500 mg/kg

molecular target: JAK1 (Homo sapiens, UniProt P23458); experiment: Kinase activity test on JAK1 (Caliper EZ Reader conversion rate); settings: not given
Sequence (P23458 whole entry): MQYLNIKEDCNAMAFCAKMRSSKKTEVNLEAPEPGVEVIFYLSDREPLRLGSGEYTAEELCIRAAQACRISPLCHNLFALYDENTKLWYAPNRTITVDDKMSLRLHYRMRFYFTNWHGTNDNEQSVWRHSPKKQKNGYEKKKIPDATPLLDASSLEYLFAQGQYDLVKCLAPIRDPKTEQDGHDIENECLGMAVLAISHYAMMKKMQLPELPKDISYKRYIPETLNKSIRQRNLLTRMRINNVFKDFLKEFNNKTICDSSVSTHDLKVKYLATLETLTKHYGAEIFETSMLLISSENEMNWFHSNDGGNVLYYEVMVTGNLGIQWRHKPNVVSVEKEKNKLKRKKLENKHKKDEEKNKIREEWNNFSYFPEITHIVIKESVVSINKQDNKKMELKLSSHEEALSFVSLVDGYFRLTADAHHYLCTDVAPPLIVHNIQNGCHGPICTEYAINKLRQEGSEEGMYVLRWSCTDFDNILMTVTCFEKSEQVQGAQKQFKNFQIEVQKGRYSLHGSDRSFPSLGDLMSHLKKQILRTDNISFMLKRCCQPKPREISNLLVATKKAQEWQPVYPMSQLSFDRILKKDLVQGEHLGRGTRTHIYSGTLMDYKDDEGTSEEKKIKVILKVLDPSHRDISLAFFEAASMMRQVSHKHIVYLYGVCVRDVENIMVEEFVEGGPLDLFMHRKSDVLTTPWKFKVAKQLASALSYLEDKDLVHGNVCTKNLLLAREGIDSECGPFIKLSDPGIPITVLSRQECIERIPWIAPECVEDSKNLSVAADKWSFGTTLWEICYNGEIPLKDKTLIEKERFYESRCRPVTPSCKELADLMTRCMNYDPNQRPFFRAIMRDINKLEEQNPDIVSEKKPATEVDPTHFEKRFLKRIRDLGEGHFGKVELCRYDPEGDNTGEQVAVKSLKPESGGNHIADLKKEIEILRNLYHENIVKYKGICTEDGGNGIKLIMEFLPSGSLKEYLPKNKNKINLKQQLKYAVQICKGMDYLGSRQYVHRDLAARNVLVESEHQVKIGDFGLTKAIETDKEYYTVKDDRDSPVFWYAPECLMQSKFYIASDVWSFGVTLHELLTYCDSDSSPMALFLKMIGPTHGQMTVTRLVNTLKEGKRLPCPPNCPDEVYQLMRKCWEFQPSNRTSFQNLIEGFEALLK

Structure (SMILES)	IC50
CC(C)(C)NS(=O)(=O)c1cccc(N2CCc3cnc(Nc4ccc(C5CCNCC5)cc4)nc32)c1 [Compound I-20]	130 nM
CC(C)(C)NS(=O)(=O)c1cccc(N2CCc3cnc(Nc4ccc(OCCN5CCOCC5)cc4)nc32)c1 [Compound I-3]	100 nM
CC(C)(C)NS(=O)(=O)c1cccc(N2CCc3cnc(Nc4ccc(OCCN5CCNCC5)cc4)nc32)c1 [Compound I-2]	189 nM

molecular target: JAK2 (Homo sapiens, UniProt O60674); experiment: Kinase activity test on JAK2 (Caliper EZ Reader conversion rate); settings: not given
Sequence (O60674 whole entry): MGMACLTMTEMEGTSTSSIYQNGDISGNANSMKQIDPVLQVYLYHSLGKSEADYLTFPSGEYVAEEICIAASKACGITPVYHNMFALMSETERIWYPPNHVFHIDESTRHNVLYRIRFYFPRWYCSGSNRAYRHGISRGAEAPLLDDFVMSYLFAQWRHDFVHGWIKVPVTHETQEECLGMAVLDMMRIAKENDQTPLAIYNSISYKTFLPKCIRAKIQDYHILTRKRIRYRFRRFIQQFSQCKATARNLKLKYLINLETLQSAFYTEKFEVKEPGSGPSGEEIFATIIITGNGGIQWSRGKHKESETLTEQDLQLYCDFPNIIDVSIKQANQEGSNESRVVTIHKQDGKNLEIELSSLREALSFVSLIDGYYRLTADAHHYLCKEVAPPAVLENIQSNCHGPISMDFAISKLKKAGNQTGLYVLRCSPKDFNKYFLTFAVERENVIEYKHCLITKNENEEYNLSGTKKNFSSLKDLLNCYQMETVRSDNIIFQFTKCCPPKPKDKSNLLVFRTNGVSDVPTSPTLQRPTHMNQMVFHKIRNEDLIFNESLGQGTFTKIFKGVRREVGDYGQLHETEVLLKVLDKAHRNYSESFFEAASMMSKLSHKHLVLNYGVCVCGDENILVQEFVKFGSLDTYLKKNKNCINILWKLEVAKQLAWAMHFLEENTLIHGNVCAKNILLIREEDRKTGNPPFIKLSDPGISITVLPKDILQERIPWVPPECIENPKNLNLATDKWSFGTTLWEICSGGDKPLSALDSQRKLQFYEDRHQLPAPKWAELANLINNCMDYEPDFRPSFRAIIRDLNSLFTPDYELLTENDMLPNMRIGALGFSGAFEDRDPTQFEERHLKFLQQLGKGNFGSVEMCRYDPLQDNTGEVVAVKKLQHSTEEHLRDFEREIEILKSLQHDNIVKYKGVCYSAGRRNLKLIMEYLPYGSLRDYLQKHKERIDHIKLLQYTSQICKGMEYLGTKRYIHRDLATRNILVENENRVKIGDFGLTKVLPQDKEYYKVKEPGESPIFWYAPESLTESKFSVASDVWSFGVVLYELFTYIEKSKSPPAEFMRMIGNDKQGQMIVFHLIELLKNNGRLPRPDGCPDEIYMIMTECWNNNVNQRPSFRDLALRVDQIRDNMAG

Structure (SMILES)	IC50
CC(C)(C)NS(=O)(=O)c1cccc(N2CCc3cnc(Nc4ccc(C5CCNCC5)cc4)nc32)c1 [Compound I-20]	1 nM
CC(C)(C)NS(=O)(=O)c1cccc(N2CCc3cnc(Nc4ccc(OCCN5CCOCC5)cc4)nc32)c1 [Compound I-3]	1 nM
CC(C)(C)NS(=O)(=O)c1cccc(N2CCc3cnc(Nc4ccc(OCCN5CCNCC5)cc4)nc32)c1 [Compound I-2]	1.1 nM

same assay, conditions: ratio of IC50 values, selectivity for JAK2 over JAK1

Structure (SMILES)	JAK1/JAK2
CC(C)(C)NS(=O)(=O)c1cccc(N2CCc3cnc(Nc4ccc(C5CCNCC5)cc4)nc32)c1 [Compound I-20]	130
CC(C)(C)NS(=O)(=O)c1cccc(N2CCc3cnc(Nc4ccc(OCCN5CCOCC5)cc4)nc32)c1 [Compound I-3]	100
CC(C)(C)NS(=O)(=O)c1cccc(N2CCc3cnc(Nc4ccc(OCCN5CCNCC5)cc4)nc32)c1 [Compound I-2]	172

same assay, conditions: ratio of IC50 values, selectivity for JAK2 over JAK3

Structure (SMILES)	JAK3/JAK2
CC(C)(C)NS(=O)(=O)c1cccc(N2CCc3cnc(Nc4ccc(C5CCNCC5)cc4)nc32)c1 [Compound I-20]	1433
CC(C)(C)NS(=O)(=O)c1cccc(N2CCc3cnc(Nc4ccc(OCCN5CCOCC5)cc4)nc32)c1 [Compound I-3]	877
CC(C)(C)NS(=O)(=O)c1cccc(N2CCc3cnc(Nc4ccc(OCCN5CCNCC5)cc4)nc32)c1 [Compound I-2]	891

molecular target: T1, JAK3 (Homo sapiens, UniProt P52333); experiment: Kinase activity test on JAK3 (Caliper EZ Reader conversion rate); settings: not given
T1 sequence (P52333 1-1124): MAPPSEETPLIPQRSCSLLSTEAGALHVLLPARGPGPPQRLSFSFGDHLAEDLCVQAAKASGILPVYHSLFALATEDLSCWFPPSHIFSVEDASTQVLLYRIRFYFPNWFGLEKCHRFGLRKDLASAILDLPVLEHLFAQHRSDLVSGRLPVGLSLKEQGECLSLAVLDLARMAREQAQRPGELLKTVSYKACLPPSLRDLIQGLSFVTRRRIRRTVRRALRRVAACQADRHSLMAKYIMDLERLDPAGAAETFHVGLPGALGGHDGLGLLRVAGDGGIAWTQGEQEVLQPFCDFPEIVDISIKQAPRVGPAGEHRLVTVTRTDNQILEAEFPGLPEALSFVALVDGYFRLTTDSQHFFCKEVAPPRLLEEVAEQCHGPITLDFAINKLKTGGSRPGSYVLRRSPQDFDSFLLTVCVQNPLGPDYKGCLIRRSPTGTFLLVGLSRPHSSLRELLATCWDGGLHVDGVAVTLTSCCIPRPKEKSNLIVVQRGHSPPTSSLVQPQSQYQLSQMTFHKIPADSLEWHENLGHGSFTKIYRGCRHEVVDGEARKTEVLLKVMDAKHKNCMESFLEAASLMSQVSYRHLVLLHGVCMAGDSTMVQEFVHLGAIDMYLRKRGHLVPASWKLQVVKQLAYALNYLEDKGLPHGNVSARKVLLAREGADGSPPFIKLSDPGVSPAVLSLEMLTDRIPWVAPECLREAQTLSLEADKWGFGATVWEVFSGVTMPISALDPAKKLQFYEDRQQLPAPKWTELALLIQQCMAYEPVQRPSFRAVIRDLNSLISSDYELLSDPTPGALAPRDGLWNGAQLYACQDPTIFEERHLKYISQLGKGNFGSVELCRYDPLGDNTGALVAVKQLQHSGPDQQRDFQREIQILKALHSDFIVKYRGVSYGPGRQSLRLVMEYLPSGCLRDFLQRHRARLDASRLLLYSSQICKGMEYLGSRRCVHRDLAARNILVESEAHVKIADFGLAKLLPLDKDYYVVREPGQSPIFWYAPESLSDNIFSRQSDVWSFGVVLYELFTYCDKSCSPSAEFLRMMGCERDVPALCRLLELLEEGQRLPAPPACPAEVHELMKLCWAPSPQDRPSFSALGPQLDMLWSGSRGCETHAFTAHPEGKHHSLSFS

Structure (SMILES)	IC50
CC(C)(C)NS(=O)(=O)c1cccc(N2CCc3cnc(Nc4ccc(C5CCNCC5)cc4)nc32)c1 [Compound I-20]	1430 nM
CC(C)(C)NS(=O)(=O)c1cccc(N2CCc3cnc(Nc4ccc(OCCN5CCOCC5)cc4)nc32)c1 [Compound I-3]	877 nM
CC(C)(C)NS(=O)(=O)c1cccc(N2CCc3cnc(Nc4ccc(OCCN5CCNCC5)cc4)nc32)c1 [Compound I-2]	980 nM
